Consider 13 molecules from US8173689B2 (Novartis AG, priority 2006, dated 2012).

The target in assay [1] is T1, cytoplasmic domain of the human CSF-1R (Homo sapiens, UniProt P07333).
T1 construct: Recombinant protein corresponding to the cytoplasmic domain of the human CSF-1R; purchased Invitrogen Corporation, Carlsbad, Calif; PV3249
T1 sequence (P07333 539-972 limits assumed): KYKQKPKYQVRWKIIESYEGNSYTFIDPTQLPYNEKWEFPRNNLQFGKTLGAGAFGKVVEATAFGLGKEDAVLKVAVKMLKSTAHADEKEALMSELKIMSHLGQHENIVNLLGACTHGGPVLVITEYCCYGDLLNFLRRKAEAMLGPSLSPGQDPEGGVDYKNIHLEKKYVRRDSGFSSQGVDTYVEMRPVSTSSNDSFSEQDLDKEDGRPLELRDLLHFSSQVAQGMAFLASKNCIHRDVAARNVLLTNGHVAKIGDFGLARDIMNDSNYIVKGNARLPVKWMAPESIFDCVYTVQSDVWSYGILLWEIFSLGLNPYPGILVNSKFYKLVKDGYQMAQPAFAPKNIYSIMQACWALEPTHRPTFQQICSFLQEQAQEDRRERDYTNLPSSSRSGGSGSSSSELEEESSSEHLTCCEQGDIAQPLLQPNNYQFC
As to the kind of experiment: In vitro kinase assay for colony stimulating factor-1 receptor (AlphaScreen). It is filed as biochemical. Conditions: tested at about 1 μM, read-out: CSF-1R percent inhibition. The method in brief: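 Kinase reaction used 4 nM recombinant cytoplasmic domain at 1 μM ATP in 50 mM Hepes pH 7.5 with 5 mM MgCl2, 10 mM MnCl2, 0.1% BSA, 1.0 mM DTT and 0.01% Tween 80. Compounds were serially diluted 3-fold from 25 μM. Phosphopeptide was detected by AlphaScreen, PT66 anti-phosphotyrosine acceptor plus streptavidin donor beads, read after overnight incubation.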
Background: In Alpha technology, singlet oxygen from a donor bead excites a nearby acceptor bead.

The target in assay [2] is T2, full-length human CSF-1R receptor (Homo sapiens, UniProt P07333).
T2 construct: transfected with the full-length human CSF-1R receptor cloned in house; expressed in transfected cells; host or cells: HEK293H (Invitrogen Cat. #11631017)
T2 sequence (P07333 20-972): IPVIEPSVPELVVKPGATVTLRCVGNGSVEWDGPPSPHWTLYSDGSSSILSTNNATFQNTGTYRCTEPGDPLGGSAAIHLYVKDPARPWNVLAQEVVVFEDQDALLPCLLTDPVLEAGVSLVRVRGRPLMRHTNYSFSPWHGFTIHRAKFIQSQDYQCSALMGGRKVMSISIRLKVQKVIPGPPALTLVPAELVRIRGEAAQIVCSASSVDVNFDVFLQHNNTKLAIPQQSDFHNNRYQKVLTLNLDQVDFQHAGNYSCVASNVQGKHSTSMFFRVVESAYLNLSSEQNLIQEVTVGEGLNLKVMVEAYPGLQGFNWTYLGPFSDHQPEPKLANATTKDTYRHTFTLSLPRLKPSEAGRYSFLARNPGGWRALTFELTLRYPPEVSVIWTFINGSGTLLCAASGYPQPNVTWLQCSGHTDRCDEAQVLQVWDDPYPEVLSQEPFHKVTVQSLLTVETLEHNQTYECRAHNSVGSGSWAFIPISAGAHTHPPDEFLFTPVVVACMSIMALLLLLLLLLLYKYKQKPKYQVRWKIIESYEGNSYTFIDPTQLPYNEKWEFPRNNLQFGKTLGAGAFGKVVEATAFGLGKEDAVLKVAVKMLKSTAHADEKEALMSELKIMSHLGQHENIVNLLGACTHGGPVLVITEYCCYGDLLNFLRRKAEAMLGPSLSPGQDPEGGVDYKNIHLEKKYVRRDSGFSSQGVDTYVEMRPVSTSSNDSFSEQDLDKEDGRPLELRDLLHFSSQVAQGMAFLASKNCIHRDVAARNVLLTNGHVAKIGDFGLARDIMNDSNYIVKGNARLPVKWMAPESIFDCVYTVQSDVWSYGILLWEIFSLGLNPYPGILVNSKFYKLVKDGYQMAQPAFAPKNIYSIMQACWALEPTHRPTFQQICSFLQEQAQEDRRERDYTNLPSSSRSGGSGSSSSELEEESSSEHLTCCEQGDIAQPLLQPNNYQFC
As to the kind of experiment: In vitro inhibition of CSF-1R receptor tyrosine phosphorylation in transfected HEK293H cells stimulated with MCSF. Particulars: HEK293-H, tested at about 1 μM, read-out: pCSF1R percent inhibition. It is filed as cell-based. On the procedure:
The lysate was then transferred to total CSF-1R antibody coated 96-well plates that had already been blocked with 3% Blocker A from Mesoscale discovery (MSD) for 2 hours and washed afterwards. Lysates were incubated overnight at 4° C. and the plates were then washed 4× with MSD Tris Wash Buffer. […] The plates were read on the Sector 6000 instrument (MSD). Raw data was imported in Abase and EC50s calculated with XL-fit data analysis software.

The next assay concerns the target T3, kinase domain of cKIT (Homo sapiens, UniProt P10721).
T3 construct: The kinase domain of cKIT was assayed in 50 mM Hepes; purchased Upstate 14-559
As to the kind of experiment: Inhibition of cKIT kinase signaling in an in vitro biochemical assay (alphascreen). Conditions: tested at about 1 μM, read-out: cKit percent inhibition.

Another assay addresses T4, kinase domain of PDGFRβ (Homo sapiens, UniProt P09619).
T4 construct: The kinase domain of PDGFRβ was assayed in 50 mM Hepes; purchased Invitrogen P3082
As to the kind of experiment: Inhibition of PDGFRb kinase signaling in an in vitro biochemical assay (alphascreen). Conditions: tested at about 1 μM, read-out: PDGFRβ percent inhibition.

Assay [3] concerns MNFS60 (murine AML cells). As to the kind of experiment: Cell viability assay in MCSF dependent MNFS60 cells (Cell Titer Glo). It is filed as cell-based. Particulars: Mus musculus, tested at about 1 μM, read-out: M-NFS-60 CP percent inhibition. The method in brief: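 3-fold DMSO dilution series (500× stocks); MCSF 10 ng/ml final; 72 hrs, 37° C., 5% CO2; CellTiter-Glo read-out; n=3; EC50 fitted.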
For orientation: ATP-based viability assays read luminescence as a measure of living cells.

Read-outs that look alike come from different tables or passages of the source.

T3 sequence (P10721 589-937 limits assumed): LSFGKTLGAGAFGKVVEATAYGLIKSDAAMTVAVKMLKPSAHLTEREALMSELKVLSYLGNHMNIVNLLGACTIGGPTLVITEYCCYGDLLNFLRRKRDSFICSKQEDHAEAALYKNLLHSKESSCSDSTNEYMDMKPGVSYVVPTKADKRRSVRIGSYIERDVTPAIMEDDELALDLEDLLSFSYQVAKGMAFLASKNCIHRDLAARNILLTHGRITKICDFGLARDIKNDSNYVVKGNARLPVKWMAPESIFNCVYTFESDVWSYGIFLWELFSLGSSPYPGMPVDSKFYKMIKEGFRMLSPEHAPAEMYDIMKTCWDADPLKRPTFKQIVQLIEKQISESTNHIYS
T4 sequence (P09619 600-962 limits assumed): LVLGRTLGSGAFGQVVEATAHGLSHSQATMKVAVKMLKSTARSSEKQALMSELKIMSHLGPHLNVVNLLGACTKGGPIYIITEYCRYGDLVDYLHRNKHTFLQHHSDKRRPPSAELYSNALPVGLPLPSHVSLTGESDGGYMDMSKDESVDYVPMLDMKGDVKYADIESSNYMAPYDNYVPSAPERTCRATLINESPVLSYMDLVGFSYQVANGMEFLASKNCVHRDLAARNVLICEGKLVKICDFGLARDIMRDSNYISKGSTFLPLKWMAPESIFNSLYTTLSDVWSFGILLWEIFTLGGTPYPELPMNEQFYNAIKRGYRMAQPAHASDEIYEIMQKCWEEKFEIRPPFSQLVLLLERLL

One may read the inhibition as the relative decrease from the control value, in per cent. For the molecule `CN1CCN(c2ccc(-c3cc(Oc4ccc5nc(N[C@@H]6CCCC[C@H]6O)sc5c4)ccn3)cn2)CC1` [Cmpd 164, (1R,2R)-2-(6-(6'-(4-methylpiperazin-1-yl)-2,3'-bipyridin-4-yloxy)benzo[d]thiazol-2-ylamino)cyclohexanol], the inhibition at 1 µM is 100% in assay [1] (compounds of Table 3); 100% in assay [2] (compounds of Table 3); 79% on kinase domain of cKIT (compounds of Table 3); 87% at kinase domain of PDGFRβ (compounds of Table 3); 100% in assay [3] (compounds of Table 3).
Consider `O[C@@H]1CCCC[C@H]1Nc1nc2ccc(Oc3ccnc(-c4ccc(N5CCOCC5)nc4)c3)cc2s1` [Cmpd 165, (1R,2R)-2-(6-(6'-morpholino-2,3'-bipyridin-4-yloxy)benzo[d]thiazol-2-ylamino)cyclohexanol], for which the inhibition at 1 µM in assay [1] (compounds of Table 3) came out at 100%; in assay [2] (compounds of Table 3) it was 98%; at kinase domain of cKIT (compounds of Table 3), 83%; at kinase domain of PDGFRβ (compounds of Table 3), 83%; in assay [3] (compounds of Table 3) it was 100%.
Take `O[C@@H]1CCCC[C@H]1Nc1nc2ccc(Oc3ccnc(-c4cccc(CN5CCOCC5)c4)c3)cc2s1` [Cmpd 166, (1R,2R)-2-(6-(2-(3-(morpholinomethyl)phenyl)pyridin-4-yloxy)benzo[d]thiazol-2-ylamino)cyclohexanol]: the inhibition at 1 µM was 100% in assay [1] (compounds of Table 3); 78% in assay [2] (compounds of Table 3); 13% on kinase domain of cKIT (compounds of Table 3); 0% on kinase domain of PDGFRβ (compounds of Table 3); 49% in assay [3] (compounds of Table 3).
The corresponding values for `O[C@@H]1CCCC[C@H]1Nc1nc2ccc(Oc3ccnc(-c4ccc(CN5CCOCC5)cc4)c3)cc2s1` [Cmpd 168, (1R,2R)-2-(6-(2-(4-(morpholinomethyl)phenyl)pyridin-4-yloxy)benzo[d]thiazol-2-ylamino)cyclohexanol] are 100%, 99%, 40%, 43% and 100%.
For the molecule `COc1ccc(-c2cc(Oc3ccc4nc(N[C@@H]5CCCC[C@H]5O)sc4c3)ccn2)cn1` [Cmpd 170, (1R,2R)-2-(6-(6'-methoxy-2,3'-bipyridin-4-yloxy)benzo[d]thiazol-2-ylamino)cyclohexanol], the inhibition at 1 µM in assay [1] (compounds of Table 3) was 100%; in assay [2] (compounds of Table 3), 96%; at kinase domain of cKIT (compounds of Table 3), 28%; at kinase domain of PDGFRβ (compounds of Table 3) it was 23%; in assay [3] (compounds of Table 3), 100%.
For `O[C@@H]1CCCC[C@H]1Nc1nc2ccc(Oc3ccnc(-c4ccnc(F)c4)c3)cc2s1` [Cmpd 171, (1R,2R)-2-(6-(2'-fluoro-2,4'-bipyridin-4-yloxy)benzo[d]thiazol-2-ylamino)cyclohexanol], the inhibition at 1 µM in assay [1] (compounds of Table 3) was found to be 100%; in assay [2] (compounds of Table 3), 95%; at kinase domain of cKIT (compounds of Table 3) it was 25%; at kinase domain of PDGFRβ (compounds of Table 3), 18%; in assay [3] (compounds of Table 3) it was 96%.
Turning to `O[C@@H]1CCCC[C@H]1Nc1nc2ccc(Oc3ccnc(-c4ccnc(N5CCOCC5)c4F)c3)cc2s1` [Cmpd 172, (1R,2R)-2-(6-(3'-fluoro-2'-morpholino-2,4'-bipyridin-4-yloxy)benzo[d]thiazol-2-ylamino)cyclohexanol], the inhibition at 1 µM in assay [1] (compounds of Table 3) was found to be 100%; in assay [2] (compounds of Table 3) it was 97%; at kinase domain of cKIT (compounds of Table 3), 22%; on kinase domain of PDGFRβ (compounds of Table 3) it was 18%; in assay [3] (compounds of Table 3), 100%.
On to `O[C@@H]1CCCC[C@H]1Nc1nc2ccc(Oc3ccnc(-c4ccc(F)nc4)c3)cc2s1` [Cmpd 173, (1R,2R)-2-(6-(6'-fluoro-2,3'-bipyridin-4-yloxy)benzo[d]thiazol-2-ylamino)cyclohexanol], for which the inhibition at 1 µM in assay [1] (compounds of Table 3) was 100%; in assay [2] (compounds of Table 3), 81%; on kinase domain of cKIT (compounds of Table 3), 18%; on kinase domain of PDGFRβ (compounds of Table 3), 8%; in assay [3] (compounds of Table 3) it was 52%.
Take `CNC(=O)c1cc(Oc2ccc3nc(NCc4ccccc4OC)oc3c2)ccn1` [Compound 17, 4-[2-(2-Methoxy-benzylamino)-benzooxazol-6-yloxy]-pyridine-2-carboxylic acid methylamide]: the inhibition at 1 µM in assay [1] was 100%; in assay [2] (HEK293H cells) it was 94%; on kinase domain of cKIT it was 85%; on kinase domain of PDGFRβ, 10%; in assay [3] (MNFS60 cells), 81%.
Turning to `CNC(=O)c1cc(Oc2ccc3nc(Nc4cccc(OC)c4)sc3c2)ccn1` [Compound 32], the inhibition at 1 µM in assay [1] (compounds of Table 3) was determined as 100%; in assay [2] (compounds of Table 3), 93%; at kinase domain of cKIT (compounds of Table 3) it was 45%; at kinase domain of PDGFRβ (compounds of Table 3) it was 11%; in assay [3] (compounds of Table 3), 65%.
Turning to `CNC(=O)c1cc(Oc2ccc3nc(NCc4cc(F)ccc4F)oc3c2)ccn1` [Compound 33, 4-[2-(2,5-Difluoro-benzylamino)-benzooxazol-6-yloxy]-pyridine-2-carboxylic acid methylamide], the inhibition at 1 µM in assay [1] (compounds of Table 4) was 100%; in assay [1] it was 98%; in assay [2] (HEK293H cells), 83%; in assay [2] (compounds of Table 4), 98%; on kinase domain of cKIT (compounds of Table 4), 65%; at kinase domain of PDGFRβ (compounds of Table 4), 0%. Moreover, the inhibition at 1 µM at kinase domain of PDGFRβ was 35%; in assay [3] (MNFS60 cells), 35%; in assay [3] (compounds of Table 4), 100%.
Consider `CNC(=O)c1cc(Oc2ccc3nc(Nc4ccccc4CCN4CCCCC4)oc3c2)ccn1` [Compound 44, 4-{2-[2-(2-Piperidin-1-yl-ethyl)-phenylamino]-benzooxazol-6-yloxy}-pyridine-2-carboxylic acid methylamide], for which the inhibition at 1 µM is 100% in assay [1] (compounds of Table 3); 100% in assay [1] (compounds of Table 4); 37% in assay [1]; 99% in assay [2] (compounds of Table 3); 53% in assay [2] (compounds of Table 4); 87% on kinase domain of cKIT (compounds of Table 3). Besides, the inhibition at 1 µM at kinase domain of cKIT (compounds of Table 4) was determined as 45%; on kinase domain of PDGFRβ (compounds of Table 3), 98%; on kinase domain of PDGFRβ (compounds of Table 4), 24%; on kinase domain of PDGFRβ, 15%; in assay [3] (compounds of Table 3), 100%; in assay [3] (compounds of Table 4) it was 94%.
With `CNC(=O)c1cc(Oc2ccc3nc(Nc4ccccc4-n4ccnc4C)oc3c2)ccn1` [Compound 47, 4-{2-[2-(2-Methyl-imidazol-1-yl)-phenylamino]-benzooxazol-6-yloxy}-pyridine-2-carboxylic acid methylamide], the inhibition at 1 µM was determined as 100% in assay [1] (compounds of Table 3); 100% in assay [1] (compounds of Table 4); 13% in assay [1]; 83% in assay [2] (compounds of Table 3); 79% in assay [2] (compounds of Table 4); 0% on kinase domain of cKIT (compounds of Table 3). Moreover, the inhibition at 1 µM at kinase domain of cKIT (compounds of Table 4) was 55%; on kinase domain of PDGFRβ (compounds of Table 3), 4%; on kinase domain of PDGFRβ (compounds of Table 4) it was 31%; at kinase domain of PDGFRβ it was 12%; in assay [3] (compounds of Table 3), 55%; in assay [3] (compounds of Table 4) it was 58%.
